According to the RepoRT retention time repository:

Test: RP, Waters ACQUITY UPLC BEH C18, 50 × 2.1 mm, 1.7 µm, 55 °C, 0.4 mL/min, estimated dead time 0.28 min; A: 40% water + 60% acetonitrile + 0.1% acetic acid + 10 mM ammonium acetate; B: 10% acetonitrile + 90% isopropanol + 0.1% acetic acid + 10 mM ammonium acetate; gradient (min/%B) 0/40 2/43 2.1/50 12/54 12.1/70 18/99 19/99
Conditions: stereoisomer not certain

Question: With `CC12CCC3C(CCC4CC(OS(=O)(=O)O)CCC43C)C1CCC2=O` (stereo not drawn) as the compound, how does the LC retention time read?
Answer: The LC retention time was 1 min.

Question: For `CCCCCCCCCCCCC(O)C(=O)O` (stereo not drawn) [2-hydroxymyristic acid], which LC retention time is on record?
Answer: Its LC retention time is 0.92 min.

Question: With `CCCCCCCCCCCCCCCC(=O)OCC(O)COP(=O)([O-])OCC[N+](C)(C)C` (stereo not drawn) [LPC(16:0/0:0)] as the compound, how does the LC retention time read?
Answer: Its LC retention time is 1.35 min.

Question: Which LC retention time does the source give for `CCCCCC=CCC=CCCCCCCCC(=O)OC(COC(=O)CCCCCCCCCCCCCCC)COP(=O)([O-])OCC[N+](C)(C)C` (stereo not drawn) [PC(16:0/18:2)] here?
Answer: Its LC retention time is 7 min.

Question: With `CCCCCC=CCC=CCC=CCC=CCCCC(=O)OC(COCCCCCCCCCCCCCCCC)COP(=O)([O-])OCC[N+](C)(C)C` (stereo not drawn) [PC(O-16:0/20:4)] as the compound, how does the LC retention time read?
Answer: The LC retention time was 8 min.

Question: With `CCCCCCCCC=CCCCCCCCC(=O)OC(COC(=O)CCCCCCCCCCCCCCC)COP(=O)(O)OC1C(O)C(O)C(O)C(O)C1O` (stereo not drawn) [PI(16:0/18:1)] as the compound, how does the LC retention time read?
Answer: The LC retention time was 6 min.

Question: With `CCCCCC=CCC=CCC=CCC=CCCCC(=O)O` [arachidonic acid] as the compound, how does the LC retention time read?
Answer: Its LC retention time is 2 min.

Question: With `CC(CCC(=O)O)C1CCC2C3C(O)CC4CC(O)CCC4(C)C3CC(O)C12C` (stereo not drawn) [cholic acid] as the compound, how does the LC retention time read?
Answer: Its LC retention time is 1 min.

Question: With `CCCCCC/C=C\CCCC(=O)O` [cis-5-dodecenoic acid] as the compound, how does the LC retention time read?
Answer: The LC retention time was 1 min.

Question: For `CCCCCCCC/C=C\CCCCCCCCCCCC(=O)O` [cis-13-docosenoic acid], which LC retention time is on record?
Answer: Its LC retention time is 4 min.

Question: With `CCCCCCCCCCCC(=O)O` [lauric acid] as the compound, how does the LC retention time read?
Answer: Its LC retention time is 1 min.

Question: With `CCCCC/C=C\C/C=C\CCCCCCCC(=O)O` [linoleic acid] as the compound, how does the LC retention time read?
Answer: The LC retention time was 2 min.

Question: With `C=CCCCCCCCCC(=O)O` [undecylenic acid] as the compound, how does the LC retention time read?
Answer: The LC retention time was 1 min.
